Laboratory results taken from ChEMBL document CHEMBL5705887, “Distinct concentration-dependent effects of the polo-like kinase 1-specific inhibitor GSK461364A, including differential effect on apoptosis” (Cancer Res, 2009).
Activity calls are given as the source filed them. The calls are words filed in the database; no cut-off is given here.

How the values were obtained:
[1] = target: Calcium/calmodulin-dependent protein kinase type II subunit gamma (Homo sapiens) (UniProt Q13555); assay: Inhibition recombinant human CAMKII-gamma at 10 uM relative to control
Chain of Calcium/calmodulin-dependent protein kinase type II subunit gamma (Homo sapiens) (Q13555 whole entry, the tested form may be a part): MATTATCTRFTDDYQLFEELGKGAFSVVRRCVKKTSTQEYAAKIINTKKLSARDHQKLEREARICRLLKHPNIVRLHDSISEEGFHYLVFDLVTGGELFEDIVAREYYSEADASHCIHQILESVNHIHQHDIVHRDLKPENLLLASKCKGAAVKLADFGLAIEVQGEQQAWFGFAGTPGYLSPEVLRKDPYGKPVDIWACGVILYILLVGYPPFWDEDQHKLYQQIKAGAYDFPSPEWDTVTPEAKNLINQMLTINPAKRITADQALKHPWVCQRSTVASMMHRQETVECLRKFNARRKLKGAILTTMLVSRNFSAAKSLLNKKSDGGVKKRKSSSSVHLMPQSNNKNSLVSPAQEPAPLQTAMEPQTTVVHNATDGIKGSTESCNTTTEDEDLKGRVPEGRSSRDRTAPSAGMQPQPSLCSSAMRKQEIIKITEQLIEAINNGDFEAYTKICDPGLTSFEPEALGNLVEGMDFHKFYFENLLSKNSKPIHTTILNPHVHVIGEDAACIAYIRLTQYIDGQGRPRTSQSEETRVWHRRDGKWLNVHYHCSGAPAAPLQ

[2] = target: Serine/threonine-protein kinase PLK3 (Homo sapiens) (UniProt Q9H4B4); assay: Inhibition of N-terminal his6-tagged recombinant human PLK3 (19 to 301 residues) expressed in baculovirus Sf21 insect cells at 10 uM relative to control
Chain of Serine/threonine-protein kinase PLK3 (Homo sapiens) (Q9H4B4 whole entry, looked up, the tested form may be a part): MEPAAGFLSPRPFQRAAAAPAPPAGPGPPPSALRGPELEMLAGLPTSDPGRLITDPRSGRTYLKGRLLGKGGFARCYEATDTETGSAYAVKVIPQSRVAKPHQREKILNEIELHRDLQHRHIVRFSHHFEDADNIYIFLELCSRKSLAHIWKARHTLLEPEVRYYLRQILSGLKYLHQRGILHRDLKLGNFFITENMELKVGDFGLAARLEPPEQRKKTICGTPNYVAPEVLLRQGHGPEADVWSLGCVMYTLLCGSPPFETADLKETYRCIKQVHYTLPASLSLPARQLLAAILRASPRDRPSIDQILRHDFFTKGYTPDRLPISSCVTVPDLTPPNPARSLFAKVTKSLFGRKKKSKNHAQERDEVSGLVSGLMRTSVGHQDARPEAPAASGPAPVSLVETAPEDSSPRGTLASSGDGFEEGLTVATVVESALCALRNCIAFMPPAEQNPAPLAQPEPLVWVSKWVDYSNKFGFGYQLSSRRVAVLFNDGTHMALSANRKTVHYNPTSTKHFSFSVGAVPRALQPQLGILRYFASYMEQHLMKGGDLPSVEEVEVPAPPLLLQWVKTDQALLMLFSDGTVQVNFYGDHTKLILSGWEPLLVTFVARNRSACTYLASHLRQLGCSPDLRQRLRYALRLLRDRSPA

A549 [3] = assay: Antimitotic activity against human A549 cells assessed as cell cycle block in G2-M phase measuring by accumulation of 4N DNA content at 10 nmol/L incubated for 24 hrs by PI staining based flow cytometric analysis; format: functional
A549 [4] = assay: Induction of mitotic arrest in human A549 cells assessed as micronucleation at 20 nmol/L incubated for 16 hrs by DAPI staining based confocal microscopic analysis; format: functional, cell-based
HL-60 = assay: Antiproliferative activity against human HL-60 cells assessed as growth inhibition incubated for 72 hrs by celltiter-glo assay; format: functional
BT-549 [5] = assay: Antiproliferative activity against human BT-549 cells assessed as growth inhibition incubated for 72 hrs by celltiter-glo assay; format: functional
SAOS-2 = assay: Antiproliferative activity against human SAOS-2 cells assessed as growth inhibition incubated for 72 hrs by celltiter-glo assay; format: functional
SK-MEL-5 [6] = assay: Antiproliferative activity against human SK-MEL-5 cells assessed as growth inhibition incubated for 72 hrs by celltiter-glo assay; format: functional
SJSA-1 = assay: Antiproliferative activity against human SJSA-1 cells assessed as growth inhibition incubated for 72 hrs by celltiter-glo assay; format: functional
A-431 [7] = assay: Antiproliferative activity against human A-431 cells assessed as growth inhibition incubated for 72 hrs by celltiter-glo assay; format: functional
RKO = assay: Antiproliferative activity against human RKO cells assessed as growth inhibition incubated for 72 hrs by celltiter-glo assay; format: functional
T47D = assay: Antiproliferative activity against human T47D cells assessed as growth inhibition incubated for 72 hrs by celltiter-glo assay; format: functional
BT-474 = assay: Antiproliferative activity against human BT-474 cells assessed as growth inhibition incubated for 72 hrs by celltiter-glo assay; format: functional
U2OS = assay: Induction of mitotic arrest in human U2OS cells assessed as effect on pHH3 level at 10 to 250 nmol/L incubated for 19 hrs by ELISA analysis; format: functional, cell-based; details: dose 10-250 nmol/L
COLO 205 [8] = assay: Antitumor activity against human COLO 205 cells xenografted in Nude mouse assessed as increase in pHH3 level at 50 to 100 mg/kg, ip administered one dose every 2 day repeated for 12 days by immunohistochemistry analysis; format: functional, organism-based; details: dose 50-100 mg/kg, time 12.0 day
COLO 205 [9] = assay: Antitumor activity against human COLO 205 cells xenografted in Nude mouse assessed as increase in pHH3 level at 50 mg/kg, ip measured at 24 hrs by immunohistochemistry analysis; format: functional, organism-based
COLO 205 [10] = assay: Antitumor activity against human COLO 205 cells xenografted in Nude mouse assessed as increase in pIk1 level at 50 to 100 mg/kg, ip measured at 24 to 48 hrs by immunohistochemistry analysis; format: functional, organism-based; details: dose 50-100 mg/kg, time 24-48 hrs
COLO 205 [11] = assay: Antitumor activity against human COLO 205 cells xenografted in ip dosed Nude mouse assessed as increase in pHH3 level measured at 24 to 48 hrs by […]; format: functional, organism-based; details: dose 50-100 mg/kg, time 24-48 hrs
BT-549 [12] = assay: Antiproliferative activity against human BT-549 cells assessed as of viable cell signal at minimum maximum cell growth incubated for 72 hrs by celltiter-glo assay relative to control; format: functional
LoVo = assay: Antiproliferative activity against human LoVo cells assessed as of viable cell signal at minimum maximum cell growth incubated for 72 hrs by celltiter-glo assay relative to control; format: functional
NCI-H322M = assay: Antiproliferative activity against human NCI-H322M cells assessed as of viable cell signal at minimum maximum cell growth incubated for 72 hrs by celltiter-glo assay relative to control; format: functional
NCI-H460 [13] = assay: Antiproliferative activity against human NCI-H460 cells assessed as of viable cell signal at minimum maximum cell growth incubated for 72 hrs by celltiter-glo assay relative to control; format: functional
NCI-H522 = assay: Antiproliferative activity against human NCI-H522 cells assessed as of viable cell signal at minimum maximum cell growth incubated for 72 hrs by celltiter-glo assay relative to control; format: functional
PANC-08-13 = assay: Antiproliferative activity against human PANC-08-13 cells assessed as of viable cell signal at minimum maximum cell growth incubated for 72 hrs by celltiter-glo assay relative to control; format: functional
[14] = Antiproliferative activity against human PL45 cells assessed as of viable cell signal at minimum maximum cell growth incubated for 72 hrs by celltiter-glo assay relative to control; format: functional
SK-MEL-5 [15] = assay: Antiproliferative activity against human SK-MEL-5 cells assessed as of viable cell signal at minimum maximum cell growth incubated for 72 hrs by celltiter-glo assay relative to control; format: functional
A-431 [16] = assay: Antiproliferative activity against human A-431 cells assessed as viable cell signal at maximum growth inhibition incubated for 72 hrs by celltiter-glo assay relative to control; format: functional
ASPC1 = assay: Antiproliferative activity against human ASPC1 cells assessed as viable cell signal at maximum growth inhibition incubated for 72 hrs by celltiter-glo assay relative to control; format: functional
BT-549 [17] = assay: Antiproliferative activity against human BT-549 cells assessed as viable cell signal at maximum growth inhibition incubated for 72 hrs by celltiter-glo assay relative to control; format: functional
DU-145 = assay: Antiproliferative activity against human DU-145 cells assessed as viable cell signal at maximum growth inhibition incubated for 72 hrs by celltiter-glo assay relative to control; format: functional
HCT-116 = assay: Antiproliferative activity against human HCT-116 cells assessed as viable cell signal at maximum growth inhibition incubated for 72 hrs by celltiter-glo assay relative to control; format: functional
MCF7 = assay: Antiproliferative activity against human MCF7 cells assessed as viable cell signal at maximum growth inhibition incubated for 72 hrs by celltiter-glo assay relative to control; format: functional
MDA-MB-453 = assay: Antiproliferative activity against human MDA-MB-453 cells assessed as viable cell signal at maximum growth inhibition incubated for 72 hrs by celltiter-glo assay relative to control; format: functional
NCI-H358 = assay: Antiproliferative activity against human NCI-H358 cells assessed as viable cell signal at maximum growth inhibition incubated for 72 hrs by celltiter-glo assay relative to control; format: functional
NCI-H460 [18] = assay: Antiproliferative activity against human NCI-H460 cells assessed as viable cell signal at maximum growth inhibition incubated for 72 hrs by celltiter-glo assay relative to control; format: functional
OVCAR-8 = assay: Antiproliferative activity against human OVCAR-8 cells assessed as viable cell signal at maximum growth inhibition incubated for 72 hrs by celltiter-glo assay relative to control; format: functional
Raji = assay: Antiproliferative activity against human Raji cells assessed as viable cell signal at maximum growth inhibition incubated for 72 hrs by celltiter-glo assay relative to control; format: functional
SK-MEL-2 = assay: Antiproliferative activity against human SK-MEL-2 cells assessed as viable cell signal at maximum growth inhibition incubated for 72 hrs by celltiter-glo assay relative to control; format: functional
SK-MEL-28 = assay: Antiproliferative activity against human SK-MEL-28 cells assessed as viable cell signal at maximum growth inhibition incubated for 72 hrs by celltiter-glo assay relative to control; format: functional

C[C@@H](Oc1cc(-n2cnc3ccc(CN4CCN(C)CC4)cc32)sc1C(N)=O)c1ccccc1C(F)(F)F [GSK-461364]
inhibition [1]: 84% | inhibition [2]: 64% | Activity (A549 [3]): Active | Activity (A549 [4]): Active | GI50 (HL-60): 17.5 nM | GI50 (BT-549 [5]): 23.1 nM | GI50 (SAOS-2): 14.2 nM | GI50 (SK-MEL-5 [6]): 28.4 nM | GI50 (SJSA-1): 24.4 nM | GI50 (A-431 [7]): 16.6 nM | GI50 (RKO): 62.9 nM | GI50 (T47D): 9160 nM | GI50 (BT-474): 7090 nM | Activity (U2OS): Active | Activity (COLO 205 [8]): Active | Activity (COLO 205 [9]): Active | Activity (COLO 205 [10]): Active | Activity (COLO 205 [11]): Dose-Dependent Effect | Emin (BT-549 [12]): 77.2% | Emin (LoVo): 23.4% | Emin (NCI-H322M): 260.3% | Emin (NCI-H460 [13]): 94.6% | Emin (NCI-H522): 125% | Emin (PANC-08-13): 131.3% | Emin [14]: 101.2% | Emin (SK-MEL-5 [15]): 84% | Emax (A-431 [16]): 820% | Emax (ASPC1): 294% | Emax (BT-549 [17]): 265% | Emax (DU-145): 500% | Emax (HCT-116): 545% | Emax (MCF7): 429% | Emax (MDA-MB-453): 489% | Emax (NCI-H358): 308% | Emax (NCI-H460 [18]): 952% | Emax (OVCAR-8): 567% | Emax (Raji): 434% | Emax (SK-MEL-2): 422% | Emax (SK-MEL-28): 353%
